In brackets after ≈: the same amount, converted by molar mass.
Legend:
Format in all cases: cell-based
Hsc70 [1] = experiment: Detection of Hsc70 gene expression level upon action of compound on 2.2.15 cells (real-time fluorescent quantified PCR); parameters: Hsc70 mRNA / Hsc70 down-regulation rate (%): unit not given here; settings: for Hsc70 inhibition rate (down-regulation of Hsc70 expression activity, expressed in relative OMT ratio): 2.2.15 cells, relative to OMT (= 1); for Hsc70 down-regulation rate (%): single value, concentration not given, values coincide with Table 1 relative OMT ratios
Method: 2.2.15 cells (purchased from Vertex Pharmaceutical Co., USA) in a number of 1×10^6 were inocubated to 6-well plate, cultured in a culture medium containing 10% fetal calf serum for 24 hr, the original culture medium was discarded, replaced with a culutre medium containing 400 μg/ml OMTR, which was used as control. Compounds were firstly dissolved in MEM to form 20 mg/ml mother liquid, which was diluted with culture medium when used and then applied to cells. The compounds of Examples 1-114 were separately used for treatment for 12, 24, 36 hr, then cells were harvested for extraction of RNA and DNA, then the changes of Hsc70 mRNA and HBV DNA were detected by real-time fluorescent quantified PCR.

Hsc70 [2] = experiment: Inhibition effects of compound on Hsc70 in Huh7.5 cultured cell (qRT-PCR, Western blotting); parameters: key to Hsc70 down-regulation rate (%): “—” represents no significant inhibition rate
Method: 2×10^5/ml Huh7.5 cells (purchased from Vertex Pharmaceutical Co., USA) were inoculated in an amount of 3 ml on 6-well culture plate, placed in an incubator with 37° C., 5% CO2 content, saturation humidity, and cultured for 24 h, added with different drug solutions (DM122) formulated with culture medium, and cell control was set. Cultivation was continuously performed in the incubator with 37° C., 5% CO2 content, saturation humidity for 24 h, a kit for RNA extraction was used to extract intracellular RNA from the cells, and one-step qRT-PCR was used to determine intracellular contents of Hsc70 and GAPDHRNA. After the cultivation of cells was performed for 48 h, the cells were digested and harvested, then the cells were split with CytoBuster™ Protein Extraction Buffer that contained many kinds of protease inhibitors, total intracellular proteins were extracted, and Western blotting was used to analyze the contents of Hsc70 and GAPDH proteins. In comparison with the cell control, the inhibition effects on Hsc70 upon action of different drugs were analyzed.

HCV = experiment: Inhibition effects of compounds on HCV in Huh7.5 cultured cell after HCV infection; settings: for EC50 (half effective concentration): virus not given, stands beside HCV inhibition rate
Method: 1×10^5/ml Huh7.5 cells (purchased from Vertex Pharmaceutical Co., USA) were inoculated in an amount of 0.1 ml on 96-well culture plate, placed in an incubator with 37° C., 5% CO2 content and saturation humidity, and cultured for 24 h, HCV virus in 45 IU/cell was used to infect Huh7.5, different drug solutions (DM122) formulated with culture medium were added, and cell control and HCV infection control were set. Cultivation was continuously performed in the incubator with 37° C., 5% CO2 content and saturation humidity for 72 h, kit for RNA extraction was used to extract intracellular RNA, one-step qRT-PCR was used to determine intracellular contents of HCV and GAPDH RNA, and the inhibition effects of drug on HCV infection was analyzed. […] In comparison with the virus control group, the inhibition effects on HCV infection upon action of different drugs were analyzed. […] This experiment was repeated for 3 times, * indicated […] in comparison with control, ** indicated p<0.01 in comparison with control.

2.2.15 cells = experiment: Drug TC50 by MTT detection; settings: Reed-Muench
Method: 2.2.15 cells (all cells were purchased from Vertex Pharmaceutical Co., USA) in exponential growth phase were inoculated on 96-well culture plate, 2×10^5 cells/well, added with culture media containing PFA diluted in different concentration rates, 3 wells for each diluted concentration, placed in 37° C. CO2—containing incubator and cultivated for 48 h; the supernatant was discarded, 100 μl of MTT (0.5 mg/ml) in culture medium was added, cultivation was continuously performed at 37° C. for 4 h; each well was added to 100 μl of 50% DMF-20% SDS destaining solution, stood at 37° C. overnight; ELISA was used to measure optical density at wavelength of 570 nm (0D570).
In each experiment, 3 cell control wells and 3 blank controls well were set, the results were used in formula, (cell control OD570-drug-medicated cell OD570)/cell control OD570, to calculate cell death rate (%), and Reed-Muench method was used to calculate half toxic concentration TC50.

| SMILES | Hsc70 inhibition rate (down-regulation of Hsc70 expression activity, expressed in relative OMT ratio) (Hsc70 [1]) | Hsc70 down-regulation rate (%) (Hsc70 [2]; 200 ug/ml (upper data)) | Hsc70 down-regulation rate (%) (Hsc70 [2]; 400 ug/ml (lower data)) | HCV inhibition rate (%) (HCV; 400 ug/ml (lower data)) | Hsc70 down-regulation rate (%) (Hsc70 [1]) | CC50 (concentration to cause poisoning in half cells) (2.2.15 cells) | EC50 (half effective concentration) (HCV) | HCV inhibition rate (%) (HCV; 200 ug/ml (upper data)) |
| --- | --- | --- | --- | --- | --- | --- | --- | --- |
| O=C(O)CCC[C@@H]1[C@H]2CCCN3CCC[C@@H](CN1C(=O)c1cccc([N+](=O)[O-])c1)[C@@H]23 [DM-121, N-(3-nitrobenzoyl) matrinic acid] | 0.23 | — | — | 14.9 ± 9.0% |  |  |  |  |
| O=C(O)CCC[C@@H]1[C@H]2CCCN3CCC[C@@H](CN1Cc1cscn1)[C@@H]23 [DM-146, N-(thiazol-4-yl)methyl matrinic acid] | 0.92 |  |  |  | 0.92 | >1000 µg/mL | 63.99 µg/mL (≈ 176 µM) |  |
| O=C(O)CCCC1C2CCCN3CCCC(CN1Cc1ccncc1)C23 (centres unmarked) [DM-145, N-(pyridin-4-yl)methyl matrinic acid] |  |  |  |  |  | >1000 µg/mL | 117.2 µg/mL (≈ 328 µM) |  |
| O=C(O)CCCC1C2CCCN3CCCC(CN1C(=O)c1ccc(F)cc1)C23 (centres unmarked) [DM-154, N-(4-fluorobenzoyl) matrinic acid] |  |  |  |  |  | >1000 µg/mL | >333.33 µg/mL |  |
| COc1ccc(C(=O)N2CC3CCCN4CCCC(C34)C2CCCC(=O)O)cc1 [Compound L11, (5R)—N-(p-methoxybenzoyl)matrinic acid] |  | 31.4 ± 12.2% | — | 61.6 ± 3.9% |  |  |  | 46.7 ± 12.7% |
| O=C(O)CCCC1C2CCCN3CCCC(CN1Cc1ccccc1Cl)C23 (centres unmarked) [DM-124, N-(2-chlorobenzyl) matrinic acid] | 0.32 |  |  |  | 0.32 | 504.6 µg/mL (≈ 1290 µM) | 68.27 µg/mL (≈ 175 µM) |  |
| O=C(O)CCCC1C2CCCN3CCCC(CN1Cc1cccc4ccccc14)C23 (centres unmarked) [DM-148, N-(naphthyl-1-yl) methyl matrinic acid] |  |  |  |  |  | 529.86 µg/mL (≈ 1300 µM) | >333.3 µg/mL |  |
| N#Cc1ccc(CN2C[C@@H]3CCCN4CCC[C@@H]([C@H]34)[C@H]2CCCC(=O)O)cc1 [DM-134, N-(4-cyanobenzyl) matrinic acid] | 0.57 |  |  |  | 0.57 | >1000 µg/mL | 52.18 µg/mL (≈ 137 µM) |  |
| Cc1ccc([N+](=O)[O-])cc1C(=O)N1C[C@H]2CCCN3CCC[C@@H]([C@H]23)[C@H]1CCCC(=O)O [Compound L2, (5R)—N-(2-methyl-5-nitrobenzoyl)matrinic acid] |  | 76.6 ± 2.5% | 32.7 ± 5.0% | 5.3 ± 5.1% |  |  |  | 27.9 ± 16.3% |
| Cc1ccc([N+](=O)[O-])cc1C(=O)N1C[C@@H]2CCCN3CCC[C@@H]([C@H]23)[C@H]1CCCC(=O)O [DM-131, N-(2-methyl-5-nitrobenzoyl) matrinic acid] | −0.86 |  |  |  | −0.86 | >1000 µg/mL | 89.31 µg/mL (≈ 208 µM) |  |
| Cc1ccc(C(=O)N2C[C@@H]3CCCN4CCC[C@@H]([C@H]34)[C@H]2CCCC(=O)O)cc1 [DM-153, N-(4-methylbenzoyl) matrinic acid] |  | 38.6 ± 15.8% | 32.6 ± 14. % | 29.2 ± 29.5% |  |  |  | 47.8 ± 9.4% |
